Key:
MDR1 = assay: MDCKII monolayer assay; type: in vitro ADME; conditions: dog, MDCK; after 120 minutes, MDCKII-MDR1 and MDCKII-Mock; loss due to conversion to M-IV
Description: The monolayer assays were performed using parental and MDR1 transfected MDCKII cell monolayers. MDCKII and MDCKII-MDR1 cells were cultured in Dulbecco's Modified Eagle's Medium with 4.5 g/L glucose (DMEM) supplemented with 10% (v/v) fetal bovine serum (FBS) at 37±1° C. in an atmosphere of 95:5 air:CO2 in cell culture flasks prior to seeding into 24-transwell inserts. Transfected and parental MDCKII cells were cultured on the inserts with 400 μL medium per well on the apical side and 25 mL in a single-well receiver tray for all 24 wells on the basolateral side, for 96 hours. Medium was changed 24 hours before the experiment. Trans-epithelial electric resistance (TEER) of each well was measured to confirm the confluency of the monolayers prior to the experiments. Permeability incubations were carried out in Hank's Buffered Salt Solution (HBSS) at 37±1° C. Apical to basolateral permeability of Lucifer yellow (LY) was assessed as a low permeability control and antipyrine was as a high permeability compound. […] LY samples were analyzed by measuring fluorescence with the following wavelengths: excitation—485 nm emission—520 nm, while the antipyrine samples were analyzed with LC-MS/MS.
As another follow-up, MDCKII-MDR1 substrate experiment was repeated at […] M-III. The amounts of M-III and M-IV were determined at the end of the incubation time. […]

[1] = Plasma pharmacokinetics in mice after single oral 50 mg/kg M-III; type: in vivo; conditions: male C57BL/6 mice
Description: (§1) To the plasma pharmacokinetics of 5-[[4-[2-[5-acetylpyridin-2-yl]ethoxy]phenyl]methyl]-1,3-thiazolidine-2,4-dione (M-III) and 5-[[4-[2-[5-(1-hydroxyethyl)pyridin-2-yl]ethoxy]phenyl]methyl]-1,3-thiazolidine-2,4-dione (M-IV) were determined in male C57BL/6 mice following a single oral (50 mg/kg) dose administration of M-III.
Nine animals were administered orally with suspension formulation of M-III in 0.1% Tween 80 and 99.9% NaCMC in water (0.5% w/v) at 50 mg/kg dose. The dosing volume administered was 10 mL/kg. The blood samples were collected from set of three mice at each time point in labeled micro centrifuge tube containing K2EDTA solution as anticoagulant at Pre-dose, 0.25, 0.5, 1, 2, 4, 8, 12 and 24 hr. Plasma samples were separated by centrifugation of whole blood and stored below −70±10° C. until bioanalysis. All samples were processed for analysis by protein precipitation using acetonitrile and analyzed with fit-for-purpose LC-MS/MS method (LLOQ=2.46 ng/mL for M-III and 2.49 ng/mL for M-IV). Pharmacokinetic parameters were calculated using the non-compartmental analysis tool of Phoenix WinNonlin® (Version 6.3).

[2] = Plasma pharmacokinetics in mice after single oral 4.5 mg/kg M-III or MIN-102; type: in vivo, male C57BL/6 mice
Description: as §1, with “The” for “To the”, “(4.5” for “(50”, “dose” for “dose administration”, “either M-III or MIN-102 (5-[[4-[2-[5-(1-hydroxyethyl)pyridin-2-yl]ethoxy]phenyl]methyl]-1,3-thiazolidine-2,4-dione hydrochloride).” for “M-III.”
Animals were administered orally with a suspension formulation of either M-III or MIN-102 in 0.1% Tween 80 and 99.9% NaCMC in water (0.5% w/v) at 4.5 mg/kg dose. The blood samples were collected from a set of three mice at each time point in labeled micro centrifuge tubes containing K2EDTA solution as anticoagulant at Pre-dose, 0.25, 0.5, 1, 2, 4, 8, 12 and 24 hr. Plasma samples were separated by centrifugation of whole blood and stored below −70±10° C. until bioanalysis. All samples were processed for analysis by protein precipitation using acetonitrile and analyzed with fit-for-purpose LC-MS/MS method (LLOQ=2.46 ng/mL for M-III and 2.49 ng/mL for M-IV). Pharmacokinetic parameters were calculated using the non-compartmental analysis tool of Phoenix WinNonlin® (Version 6.3).

[3] = as described in WO 2015/150476 A1; cited from earlier work
[4] = Plasma pharmacokinetics in rats after single oral 10 mg/kg M-III or MIN-102; type: in vivo, male Sprague Dawley rats
Description: (§2) The plasma pharmacokinetics of 5-[[4-[2-[5-acetylpyridin-2-yl]ethoxy]phenyl]methyl]-1,3-thiazolidine-2,4-dione (M-III; M3) and 5-[[4-[2-[5-(1-hydroxyethyl)pyridin-2-yl]ethoxy]phenyl]methyl]-1,3-thiazolidine-2,4-dione (M-IV; M4) were determined in male Sprague Dawley following a single oral (10 mg/kg) dose administration of either M-III or MIN-102.
Six animals were dosed orally with a suspension formulation of either M-III or MIN-102 in 0.1% Tween 80 and 99.9% CMC (0.5% w/v solution in RO water) at 10 mg/kg.
The dosing volume administered was 10 mL/kg. Blood samples (approximately 60 μL) were collected from retro-orbital plexus of three rats at 0.08, 0.25, 0.5, 1, 2, 4, 8, 12 and 24 hr (IV) and at predose, 0.25, 0.5, 1, 2, 4, 8, 12 and 24 hr. Samples were collected into labeled micro-tubes, containing K2EDTA solution (20% K2EDTA solution) as an anticoagulant. Plasma was immediately harvested from the blood by centrifugation at 4000 rpm for 10 min at 4±2° C. and stored below −70° C. until bioanalysis.
Concentrations of M-III and M-IV in rat plasma samples were determined by fit-for-purpose LC-MS/MS method. Non-Compartmental-Analysis module in Phoenix WinNonlin® (Version 6.3) was used to assess the pharmacokinetic parameters. Peak plasma concentrations (Cax) and time for the peak plasma concentrations (Tmax) were the observed values. The areas under the concentration time curve (AUClast and AUCinf) were calculated by linear trapezoidal rule.

[5] = Plasma pharmacokinetics in dogs after single oral 3 mg/kg M3 or MIN-102; type: in vivo, male Beagle dogs
Description: as §2, with “male Beagle dogs” for “male Sprague Dawley”, “oral (3” for “oral (10”, “either M3” for “either M-III”
Six animals were dosed orally with a suspension formulation of either M-III or MIN-102 in 0.1% Tween 80 and 99.9% CMC (aqueous carboxymethylcellulose 0.5% w/v solution in RO water) at 3 mg/kg. Blood samples (0.5 ml) were collected from the saphenous or cephalic or jugular veins of dogs at predose, 0.5, 1, 2, 4, 6 and 24 hr. Samples were collected into labeled micro-tubes, containing K2EDTA solution (20% K2EDTA solution) as an anticoagulant. Plasma was immediately harvested from the blood by centrifugation at 4000 rpm for 10 min and stored below −70° C. until bioanalysis.
Concentrations of M3 and M-IV in dog plasma samples were determined by fit-for-purpose LC-MS/MS method. Non-Compartmental-Analysis module in Phoenix WinNonlin® (Version 6.3) was used to assess the pharmacokinetic parameters. Peak plasma concentrations (Cmax) and time for the peak plasma concentrations (Tmax) were the […] observed values. The areas under the concentration time curve (AUClast and AUCinf) were calculated by linear trapezoidal rule.

recovery at 120 min (MDR1): 30 to 60% | share of total exposure (AUC) [1]: about 25% | share of total exposure (AUC) ([2]; after single oral 4.5 mg/kg M-III, male mice): ~27% | share of total exposure (AUC) ([2]; after single oral 4.5 mg/kg MIN-102, male mice): about 38% | share of total exposure (AUC) ([4]; after single oral 10 mg/kg M-III, male rats): ~53% | share of total exposure (AUC) ([4]; after single oral 10 mg/kg MIN-102, male rats): about 42% | share of total exposure (AUC) ([5]; after single oral 3 mg/kg M3, male dogs): ~16% | share of total exposure (AUC) ([5]; after single oral 3 mg/kg MIN-102, male dogs): about 8%
SMILES: CC(=O)c1ccc(CCOc2ccc(CC3SC(=O)NC3=O)cc2)nc1 (stereo not drawn) [M-III, 5-[[4-[2-[5-acetylpyridin-2-yl]ethoxy]phenyl]methyl]-1,3-thiazolidine-2,4-dione]
blood-brain-barrier penetration [3]: does not penetrate the BBB

From patent US20240091210A1, “USE OF 5-[[4-[2-[5-ACETYLPYRIDIN-2-YL]ETHOXY]BENZYL]-1,3-THIAZOLIDINE-2,4-DIONE AND ITS SALTS” (Minoryx Therapeutics S.L., priority 2018, published 2024)
